Target: T1, recombinant human plasminogen activator inhibitor-1 (PAI-1) (Homo sapiens, UniProt P05121)
T1 construct: purchased Molecular Innovations, Royal Oak, Mich
Assay: Primary screen for the PAI-1 inhibition (chromogenic tPA activity, Spectrozyme-tPA)
Type: biochemical
Details: compound at 100 μM
Experimental: Test compounds are dissolved in DMSO at a final concentration of 10 mM, then diluted 100× in physiologic buffer. The inhibitory assay is initiated by the addition of the substituted oxadiazolidinedione (1–100 μM final concentration, maximun DMSO concentration of 0.2%) in a pH 6.6 buffer containing 140 nM recombinant human plasminogen activator inhibitor-1 (PAI-1; Molecular Innovations, Royal Oak, Mich.). Following a 1 hour incubation at room temperature, 70 nM of recombinant human tissue plasminogen activator (tPA) is added, and the combination of the substituted oxadiazolidinedione, PAI-1 and tPA is incubated for an additional 30 minutes. Following the second incubation, Spectrozyme-tPA (American Diagnostica, Greenwich, Conn.), a chromogenic substrate for tPA, is added and absorbance read at 405 nm at 0 and 60 minutes. Relative PAI-1 inhibition is equal to the residual tPA activity in the presence of the test compound and PAI-1. Control treatments include the complete inhibition of tPA by PAI-1 at the molar ratio employed (2:1), and the absence of any effect of the substituted oxadiazolidinedione on tPA alone.

T1 sequence (P05121 24-402): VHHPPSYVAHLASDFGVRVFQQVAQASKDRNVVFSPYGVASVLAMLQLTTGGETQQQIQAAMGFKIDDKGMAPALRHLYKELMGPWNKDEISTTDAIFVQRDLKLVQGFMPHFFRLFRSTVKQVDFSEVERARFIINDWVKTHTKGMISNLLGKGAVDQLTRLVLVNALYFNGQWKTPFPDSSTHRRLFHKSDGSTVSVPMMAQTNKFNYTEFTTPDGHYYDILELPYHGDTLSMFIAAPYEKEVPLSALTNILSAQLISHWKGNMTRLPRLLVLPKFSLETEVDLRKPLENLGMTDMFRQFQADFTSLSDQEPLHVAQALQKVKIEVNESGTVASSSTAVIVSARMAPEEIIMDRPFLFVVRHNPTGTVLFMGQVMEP

Structure (SMILES)	inhibition at 100 µM [%]
CC(C)(C)c1ccc(COc2ccc3c(c2)c(Cn2oc(=O)[nH]c2=O)cn3Cc2ccccc2)cc1 [Compound 1, 2-({1-benzyl-5-[(4-tert-butylbenzyl)oxy]-1H-indol-3-yl}methyl)-1,2,4-oxadiazolidine-3,5-dione]	96
O=c1[nH]c(=O)n(Cc2cn(Cc3ccccc3)c3ccc(OCc4cccc(Cl)c4)cc23)o1 [Compound 9, 2-({1-benzyl-5-[(3-chlorobenzyl)oxy]-1H-indol-3-yl}methyl)-1,2,4-oxadiazolidine-3,5-dione]	92
O=c1[nH]c(=O)n(Cc2cn(Cc3ccccc3)c3ccc(OCc4cccc(C(F)(F)F)c4)cc23)o1 [Compound 10, 2-[(1-benzyl-5-{[3-(trifluoromethyl)benzyl]oxy}-1H-indol-3-yl)methyl]-1,2,4-oxadiazolidine-3,5-dione]	92
COc1cc(Cn2oc(=O)[nH]c2=O)cc(OCc2ccc(C(F)(F)F)cc2)c1OCc1ccc(C(F)(F)F)cc1 [Compound 76, 2-(3-methoxy-4,5-bis{[4-(trifluoromethyl)benzyl]oxy}benzyl)-1,2,4-oxadiazolidine-3,5-dione]	95
COc1cc(Cn2oc(=O)[nH]c2=O)cc(OCc2cccc(C)c2)c1OCc1cccc(C)c1 [Compound 77, 2-{3-methoxy-4,5-bis[(3-methylbenzyl)oxy]benzyl}-1,2,4-oxadiazolidine-3,5-dione]	88
COc1cc(Cn2oc(=O)[nH]c2=O)cc(OCc2cccc(Cl)c2)c1OCc1cccc(Cl)c1 [Compound 78, 2-{3,4-bis[(3-chlorobenzyl)oxy]-5-methoxybenzyl}-1,2,4-oxadiazolidine-3,5-dione]	91
COc1cc(Cn2oc(=O)[nH]c2=O)cc(OCc2cccc(Br)c2)c1OCc1cccc(Br)c1 [Compound 79, 2-{3,4-bis[(3-bromobenzyl)oxy]-5-methoxybenzyl}-1,2,4-oxadiazolidine-3,5-dione]	87
O=c1[nH]c(=O)n(Cc2cccc(OCc3ccc(C(F)(F)F)cc3)c2OCc2ccc(C(F)(F)F)cc2)o1 [Compound 81, 2-(2,3-bis{[4-(trifluoromethyl)benzyl]oxy}benzyl)-1,2,4-oxadiazolidine-3,5-dione]	92
Cc1cccc(COc2cccc(Cn3oc(=O)[nH]c3=O)c2OCc2cccc(C)c2)c1 [Compound 82, 2-{2,3-bis[(3-methylbenzyl)oxy]benzyl}-1,2,4-oxadiazolidine-3,5-dione]	80
O=c1[nH]c(=O)n(Cc2cccc(OCc3cccc(Cl)c3)c2OCc2cccc(Cl)c2)o1 [Compound 83, 2-{2,3-bis[(3-chlorobenzyl)oxy]benzyl}-1,2,4-oxadiazolidine-3,5-dione]	95
O=c1[nH]c(=O)n(Cc2ccc(OCc3ccc(C(F)(F)F)cc3)c(OCc3ccc(C(F)(F)F)cc3)c2)o1 [Compound 86, 2-(3,4-bis{[4-(trifluoromethyl)benzyl]oxy}benzyl)-1,2,4-oxadiazolidine-3,5-dione]	94
Cc1cccc(COc2ccc(Cn3oc(=O)[nH]c3=O)cc2OCc2cccc(C)c2)c1 [Compound 87, 2-{3,4-bis[(3-methylbenzyl)oxy]benzyl}-1,2,4-oxadiazolidine-3,5-dione]	92
O=c1[nH]c(=O)n(Cc2ccc(OCc3cccc(Cl)c3)c(OCc3cccc(Cl)c3)c2)o1 [Compound 88, 2-{3,4-bis[(3-chlorobenzyl)oxy]benzyl}-1,2,4-oxadiazolidine-3,5-dione]	91

The next lines start with the values.

inhibition at 100 µM [%]	Structure (SMILES)
92	O=c1[nH]c(=O)n(Cc2cc(OCc3cccc(Br)c3)cc(OCc3cccc(Br)c3)c2)o1 [Compound 74, 2-{3,5-bis[(3-bromobenzyl)oxy]benzyl}-1,2,4-oxadiazolidine-3,5-dione]
91	O=c1[nH]c(=O)n(Cc2cc(OCc3ccccc3Br)cc(OCc3ccccc3Br)c2)o1 [Compound 75, 2-{3,5-bis[(2-bromobenzyl)oxy]benzyl}-1,2,4-oxadiazolidine-3,5-dione]
89	COc1cc(Cn2oc(=O)[nH]c2=O)cc(OCc2ccccc2Br)c1OCc1ccccc1Br [Compound 80, 2-{3,4-bis[(2-bromobenzyl)oxy]-5-methoxybenzyl}-1,2,4-oxadiazolidine-3,5-dione]
95	O=c1[nH]c(=O)n(Cc2cccc(OCc3cccc(Br)c3)c2OCc2cccc(Br)c2)o1 [Compound 84, 2-{2,3-bis[(3-bromobenzyl)oxy]benzyl}-1,2,4-oxadiazolidine-3,5-dione]
93	O=c1[nH]c(=O)n(Cc2cccc(OCc3ccccc3Br)c2OCc2ccccc2Br)o1 [Compound 85, 2-{2,3-bis[(2-bromobenzyl)oxy]benzyl}-1,2,4-oxadiazolidine-3,5-dione]
88	O=c1[nH]c(=O)n(Cc2ccc(OCc3cccc(Br)c3)c(OCc3cccc(Br)c3)c2)o1 [Compound 89, 2-{3,4-bis[(3-bromobenzyl)oxy]benzyl}-1,2,4-oxadiazolidine-3,5-dione]
94	O=c1[nH]c(=O)n(Cc2ccc(OCc3ccccc3Br)c(OCc3ccccc3Br)c2)o1 [Compound 90, 2-{3,4-bis[(2-bromobenzyl)oxy]benzyl}-1,2,4-oxadiazolidine-3,5-dione]

Target: human PAI-1 (Homo sapiens, UniProt P05121)
Assay: Assay for determining IC50 of inhibition of PAI-1 (active PAI-1 bound to tPA-coated plate, 33B8 antibody detection)
Type: biochemical
Details: values carry suffix (K), not defined in the patent
Experimental: This assay is based upon the non-SDS dissociable interaction between tPA and active PAI-1. Assay plates are initially coated with human tPA (10 μg/ml). Substituted oxadiazolidinediones of the present invention are dissolved in DMSO at 10 mM, then diluted with physiologic buffer (pH 7.5) to a final concentration of 1–50 μM. Test compounds are incubated with human PAI-1 (50 ng/ml) for 15 minutes at room temperature. The tPA-coated plate is washed with a solution of 0.05% Tween 20 and 0.1% BSA, then the plate is blocked with a solution of 3% BSA. An aliquot of the substituted oxadiazolidinedione/PAI-1 solution is then added to the tPA-coated plate, incubated at room temperature for 1 hour, and washed. Active PAI-1 bound to the plate is assessed by adding an aliquot of a 1:1000 dilution of the 33B8 monoclonal antibody against human PAI-1, and incubating the plate at room temperature for 1 hour (Molecular Innovations, Royal Oak, Mich.). The plate is again washed, and a solution of goat anti-mouse IgG-alkaline phosphatase conjugate is added at a 1:50,000 dilution in goat serum. The plate is incubated 30 minutes at room temperature, washed, and a solution of alkaline phosphatase substrate is added. The plate is incubated 45 minutes at room temperature, and color development is determined at OD405nm. The quantitation of active PAI-1 bound to tPA at varying concentrations of the substituted oxadiazolidinedione is used to determine the IC50. Results are analyzed using a logarithmic best-fit equation. The assay sensitivity is 5 ng/ml of human PAI-1 as determined from a standard curve ranging from 0–100 ng/ml.

Sequence of human PAI-1 (P05121 24-402): as above

IC50 [µM]	Structure (SMILES)
13.8	CC(C)(C)c1ccc(COc2ccc3c(c2)c(Cn2oc(=O)[nH]c2=O)cn3Cc2ccccc2)cc1 [Compound 1, 2-({1-benzyl-5-[(4-tert-butylbenzyl)oxy]-1H-indol-3-yl}methyl)-1,2,4-oxadiazolidine-3,5-dione]
26.5	O=c1[nH]c(=O)n(Cc2cn(Cc3ccccc3)c3ccc(OCc4cccc(Cl)c4)cc23)o1 [Compound 9, 2-({1-benzyl-5-[(3-chlorobenzyl)oxy]-1H-indol-3-yl}methyl)-1,2,4-oxadiazolidine-3,5-dione]
9.36	O=c1[nH]c(=O)n(Cc2cn(Cc3ccccc3)c3ccc(OCc4cccc(C(F)(F)F)c4)cc23)o1 [Compound 10, 2-[(1-benzyl-5-{[3-(trifluoromethyl)benzyl]oxy}-1H-indol-3-yl)methyl]-1,2,4-oxadiazolidine-3,5-dione]
